Source: patent US9101613B2, “Methods for treating neurological disease” (Neurim Pharmaceuticals (1991) Ltd., priority 2006, dated 2015)

B1: BDNF: Brain-derived neurotrophic factor, growth factor used as reference compound (protein, UniProt P23560 19-247, looked up)
Neurotrophic factor BDNF …: APMKEANIRGQGGLAYPGVRTHGTLESVNGPKAGSRGLTSLADTFEHVIEELLDEDQKVRPNEENNKDADLYTSRVMLSSQVPLEPPLLFLLEEYKNYLDAANMSMRVRRHSDPARRGELSVCDSISEWVTAADKKTAVDMSGGTVTVLEKVPVSKGQLKQYFYETKCNPMGYTKEGCRGIDKRHWNSQCRTTQSYVRALTMDSKKRIGWRFIRIDTSCVCTLTIKRGR

How the values were obtained:
mice = test: Rotarod assay, interaction with diazepam;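 also: Success means running more than 120 min on the rod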; type: in vivo; details: Diazepam 1.5 mg/kg p.o. + Vehicle i.p.; 15 rpm
Procedure: The incidences of animals running more than […] on the rotating rod were noted, and significances were calculated by non-parametric x^2 test. 8 mice/group were used.
The rotarod apparatus is divided into five test zones, so that up to five mice may be tested at the same time. The rod has been specially machined to provide a suitable grip for the animal. The diameter of the rod is 3.5 cm. The rotation speed was 15 rpm. When the animal falls off the rotating rod, it presses a button to record automatically the time spent on the rod. On the day before the experiment the mice were trained to run on the rod rotating with 15 rpm. Diazepam was administered orally 60 min before the rotarod assay, test substances were administered intraperitoneally 15 min before testing.

3T3-L1 adipocytes = test: 2-[3H]-deoxy-d-glucose uptake in FFA-treated 3T3-L1 adipocyte model; type: cell-based
Procedure: Adipocytes were glucose-starved for 1 h in Hepes-salt buffer containing 2% FFA-free BSA. FFA (free fatty acids) were then added to the cells at the indicated concentrations (300 μM) for the indicated times (3 h). 10 min before the end of the FFA treatment, the cells were stimulated with insulin (20 nM)/melatonin (10 nM)/test compounds (10 nM) at 37° C. 2-[^3H]-deoxy-d-glucose at 1 μCi/mL and 0.1 mM unlabeled 2-deoxyglucose in KRP-HEPES buffer was added and cells were incubated for 10 min at room temperature. Non-specific glucose uptake was measured by parallel incubations in the presence of 10 μM cytochalasin B, which blocks transporter-mediated glucose uptake, and was subtracted from total uptake in each assay. Cells were then washed three times with ice-cold phosphate buffered saline (PBS) and solubilized in 1M NaOH for 20 minutes. The sample was then counted using a scintillation counter. 2-[^3H]-deoxy-d-glucose uptake was assayed in triplicates for each condition in at least 3 independent experiments. 2-[^3H]-deoxy-d-glucose uptake (counts per minute-cpm) are presented as mean+SE of triplicates in a representative experiment or results of three independent experiments. ANOVA test was used with significance of P<0.05 (Table 7).

MT-1 receptor = molecular target: T1, MT-1 receptor (Homo sapiens, UniProt P48039); test: 125I-melatonin binding in membranes of CHP-K1 cells, MT-1; details: 0.05 nM 125I-melatonin; for IC50 / Ki: 25° C., 3 hours; for IC50: read-out: MT-1 receptor binding IC50; for Ki: read-out: MT-1 receptor binding KI; for inhibition at 10 µM: read-out: MT-1 receptor binding % inhibition by 10 μM
T1 construct: expressed in transfected cells; host or cells: CHP-K1 (Chinese hamster ovary) cells (so in the source)
T1 sequence (P48039 whole entry): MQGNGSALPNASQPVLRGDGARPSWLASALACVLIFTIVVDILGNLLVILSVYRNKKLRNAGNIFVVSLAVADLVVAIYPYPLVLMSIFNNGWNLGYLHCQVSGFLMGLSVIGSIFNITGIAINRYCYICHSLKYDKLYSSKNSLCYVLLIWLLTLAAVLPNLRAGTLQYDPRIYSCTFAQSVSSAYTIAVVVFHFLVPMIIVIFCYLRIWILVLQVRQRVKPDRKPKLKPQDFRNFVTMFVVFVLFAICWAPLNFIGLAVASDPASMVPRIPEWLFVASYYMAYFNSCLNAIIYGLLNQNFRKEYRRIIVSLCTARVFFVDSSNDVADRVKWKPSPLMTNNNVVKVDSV
Procedure: (§1) Aliquots of suspended membranes of human recombinant CHP-K1 (Chinese hamster ovary) cells stably expressing human melatonin-1 or melatonin-2 (MT-1 or MT-2) receptors or of hamster brain (MT-3) were incubated at 25° C. with 0.05 nM ^125I-melatonin in buffer (25 mM HEPES, pH 7.4, 5 mM MgCl2, 1 mM CaCl2, 0.5% BSA) or with 0.1 nM for MT-3 alone or in the presence of 1 nM, 10 nM, 0.1 μM, 1 μM and 10 μM of test substances N-[2-(5-methoxy-indol-3-yl)-ethyl]-commenamide, N-[2-(5-methoxy-indol-3-yl)-ethyl]-comanilamide, N-[2-(5-methoxy-indol-3-yl)-ethyl]-coumalylamide, N-[2-(5-methoxy-indol-3-yl)-ethyl]-2-methoxy-commenamide, N-[2-(5-methoxy-indol-3-yl)-ethyl]-chelidonamide, O-[2-(5-methoxy-indol-3-yl)-ethyl]-comenic ester, N-[2-(5-methoxy-indol-3-yl)-ethyl]-2-Pyrone-6-carboxamide and N-[2-(2-bromo-5-methoxy-indol-3-yl)-ethyl]-coumalylamide for 3 hours for MT-1, 4 hours for MT-2 and 30 min for MT-3. The binding reaction was terminated and the membranes were washed with 4 ml of ice-cold HEPES buffer by vacuum filtration. Membranes were then collected, and the filters containing the bound ^125I-melatonin were assayed for the amount of radioactivity in a […]. Non-specific binding was evaluated using a reaction with 1 μM 6-chloromelatonin (MT-1 and MT-2) or 30 μM melatonin (MT-3).

MT-2 receptor = molecular target: T2, MT-2 receptor (Homo sapiens, UniProt P49286); test: 125I-melatonin binding in membranes of CHP-K1 cells, MT-2; details: 0.05 nM 125I-melatonin; for IC50 / Ki: 25° C., 4 hours; for IC50: read-out: MT-2 receptor binding IC50; for Ki: read-out: MT-2 receptor binding KI; for inhibition at 10 µM: read-out: MT-2 receptor binding % inhibition by 10 μM
T2 construct: expressed in transfected cells; host or cells: CHP-K1 (Chinese hamster ovary) cells (so in the source)
T2 sequence (P49286 1-362): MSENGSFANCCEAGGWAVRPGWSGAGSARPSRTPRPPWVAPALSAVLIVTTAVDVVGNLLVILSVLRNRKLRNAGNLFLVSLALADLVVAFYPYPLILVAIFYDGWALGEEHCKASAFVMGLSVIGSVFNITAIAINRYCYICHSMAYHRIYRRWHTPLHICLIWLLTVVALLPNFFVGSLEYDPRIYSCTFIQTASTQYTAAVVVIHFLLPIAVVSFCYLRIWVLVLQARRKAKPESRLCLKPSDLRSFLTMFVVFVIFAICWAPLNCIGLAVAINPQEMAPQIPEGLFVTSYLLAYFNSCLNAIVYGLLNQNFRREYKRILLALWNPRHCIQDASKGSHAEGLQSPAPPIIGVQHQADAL
Procedure: as §1

CD1 mice = test: Potentiation of hexobarbital-Na sleep time in mice; type: in vivo
Procedure: CD1 mice were divided randomly into groups of seven mice each. The mice in each group were administered intraperitoneally a dose of one of the following: 100 mg/kg of one of test substances O-[2-(5-methoxy-indol-3-yl)-ethyl]-comenic ester, N-[2-(5-methoxyindol-3-yl)-ethyl]-commenamide, N-[2-(5-methoxy-indol-3-yl)-ethyl]-coumalylamide, N-[2-(5-methoxy-indol-3-yl)-ethyl]-chelidonamide, N-[2-(5-methoxy-indol-3-yl)-ethyl]-comanilamide or N-[2-(5-methoxy-indol-3-yl)-ethyl]-2-methoxy-commenamide in saline (0.1 ml/10 g body weight), or saline alone. Fifteen minutes later the mice received a dose of 50 mg/kg of hexobarbital-Na intravenously. Sleep time was measured in each animal as the time from loss to recovery of the righting reflex.

[1] = system: rat primary cortical neurons; test: Neurite outgrowth in rat primary cortical neurons; type: cell-based; details: 5 days of culture
Procedure: The aim of this study was to assess the potential effect of N-[2-(5-methoxy-indol-3-yl)-ethyl]-comanilamide (100 nM) after 5 days of culture on neurite outgrowth in rat primary cortical neurons. The study used three separate cultures (n=6 wells per condition); the mean value of the 3 cultures (+/−sem) was calculated.
Rat cortical neurons were cultured as described by Singer et al., 1999. Briefly pregnant female rats of 15 days gestation are killed by cervical dislocation (Rats Wistar; Janvier) and the fetuses removed from the uterus. The cortex are removed and placed in ice-cold medium of Leibovitz (L15; Invitrogen) containing 1% of Penicillin-Streptomycin (PS; Invitrogen) and 1% of bovine serum albumin (BSA; Sigma). Cortex are dissociated by trypsinisation for 20 min at 37° C. (Trypsin EDTA 1×; Invitrogen) diluted in PBS without calcium and magnesium. The reaction is stopped by the addition of Dulbecco's modified Eagle's medium (DMEM; Invitrogen) containing DNAase I grade II (0.1 mg/ml; Roche Diagnostic) and 10% of fetal calf serum (FCS; Invitrogen). Cells are then mechanically dissociated by 3 passages through a 10 ml pipette. Cells are then centrifuged at 180×g for 10 min at 10° C. The supernatant is discarded and the cells of pellet are re-suspended in a defined culture medium consisting of Neurobasal (Invitrogen) supplemented with B27 (2%; Invitrogen), L-glutamine (0.2 mM; Invitrogen) and 1% of PS solution with 10 ng/ml of Brain-derived neurotrophic factor (BDNF).
For the neurite outgrowth assay, the cells are seed with test compound A (at 100 nM) and reference compound (BDNF at 10 ng/ml used as reference control) on defined medium (Neurobasal supplemented with 2% of B27, 0.2 mM of L-glutamine and 1% of PS).
The cultures were done (a) without BDNF in order to analyse the neurotrophic effect of compounds alone and (b) with low BDNF concentration (0.5 ng/ml) in order to analyse the synergic neurotrophic effect of N-[2-(5-methoxy-indol-3-yl)-ethyl]-comanilamide with the growth factor.
After 5 days of culture in presence of N-[2-(5-methoxy-indol-3-yl)-ethyl]-comanilamide and reference, cells were fixed by a cool solution of ethanol (95%) and acetic acid (5%) for 10 min. After permeabilization with 0.1% of saponin, cells were incubated with monoclonal antibody anti microtubule associated protein 2 (MAP-2; Sigma). This antibody stains specifically cell bodies and neurite of neurons. […] Nuclei of neurons were labeled by a fluorescent marker (Hoechst solution, SIGMA). Per well, 20 pictures were taken using InCell Analyzer™ 1000 (GE Healthcare) with 20× magnification. All images were done in the same conditions. Analysis of the neuritis networks and neuron were assessed using Developer software (GE Healthcare). […]

Row | Molecule | IC50 (MT-1 receptor) [nM] | Ki (MT-1 receptor) [nM] | inhibition at 10 µM (MT-1 receptor) [%] | IC50 (MT-2 receptor) [nM] | Ki (MT-2 receptor) [nM] | inhibition at 10 µM (MT-2 receptor) [%] | further results
1 | CN1C(=O)CN=C(c2ccccc2)c2cc(Cl)ccc21 [Diazepam, reference compound] | – | – | – | – | – | – | Incidence of performance (rotarod) (mice): 6/8
2 | Insulin | – | – | – | – | – | – | 2-[3H]-deoxy-d-glucose uptake (cpm) (3T3-L1 adipocytes; Insulin (20 nM) alone, no FFA): 1839 cpm
3 | COc1ccc2[nH]cc(CCNC(=O)c3cccc(=O)o3)c2c1 [N-[2-(5-methoxy-indol-3-yl)-ethyl]-2-Pyrone-6-carboxamide] | 10100 | 5240 | 50 | 5060 | 2630 | 65 | –
4 | COc1ccc2[nH]cc(CCOC(=O)c3cc(=O)c(O)co3)c2c1 [O-[2-(5-methoxy-indole-3-yl)-ethyl]-comenic ester] | – | – | 47 | 1640 | 850 | 78 | effect on hexobarbital-Na narcosis time (CD1 mice; 100 mg/kg i.p.): significantly increased the hexobarbital-Na narcosis time; Changes (%) vs. Vehicle (sleep time) (CD1 mice; 100 mg/kg i.p. 15 min before 50 mg/kg hexobarbital-Na i.v.): +108%; Mean Sleep Time-Treatment (min) ± SE (CD1 mice; 100 mg/kg i.p. 15 min before 50 mg/kg hexobarbital-Na i.v., loss to recovery of righting reflex): 15.15 ± 6.02 min; 2-[3H]-deoxy-d-glucose uptake (cpm) (3T3-L1 adipocytes; Insulin 20 nM + FFA 300 μM (3 h) + substance 10 nM): 1787 cpm
5 | COc1ccc2[nH]c(Br)c(CCNC(=O)c3ccc(=O)oc3)c2c1 [N-[2-(2-bromo-5-methoxy-indol-3-yl)-ethyl]-coumalylamide] | 2400 | 1250 | 76 | 850 | 441 | 89 | –
6 | B1 | – | – | – | – | – | – | neurite length, % of control ([1]; BDNF 0.5 ng/ml alone): ~125 % of control; neurite length, % of control ([1]; BDNF 10 ng/ml reference): ~153 % of control
